Results published in PMC9870890 (Nature Communications, 2023).
“And” between values parts separate entries of the source, which are not always exact repeats. Equal values may be shown once. Read-outs that look alike come from different tables or passages of the source.

Biological target: T1, M2R (Homo sapiens, UniProt P08172)
T1 sequence (P08172 1-466): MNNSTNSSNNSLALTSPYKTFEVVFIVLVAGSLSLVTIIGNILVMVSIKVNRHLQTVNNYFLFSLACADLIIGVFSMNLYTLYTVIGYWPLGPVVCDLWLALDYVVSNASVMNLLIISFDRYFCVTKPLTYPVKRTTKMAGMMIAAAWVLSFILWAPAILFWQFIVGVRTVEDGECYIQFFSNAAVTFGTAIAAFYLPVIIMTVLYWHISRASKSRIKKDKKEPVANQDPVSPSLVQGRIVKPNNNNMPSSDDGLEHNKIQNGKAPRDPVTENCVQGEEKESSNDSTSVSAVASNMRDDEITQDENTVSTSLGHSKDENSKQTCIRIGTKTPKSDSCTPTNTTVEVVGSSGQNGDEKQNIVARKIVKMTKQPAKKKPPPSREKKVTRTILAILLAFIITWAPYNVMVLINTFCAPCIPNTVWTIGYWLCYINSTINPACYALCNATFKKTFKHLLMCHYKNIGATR
Assay: cell-based
Set-up: expressed in transfected cells; host or cells: HEK 293T
Details: for Emax: HEK-293T
Experimental: Determination of β-arrestin-2 recruitment was performed applying the PathHunter assay (DiscoverX, Birmingham, U.K.) which is based on fragment complementation of β-galactosidase as described. In detail, HEK293T cells were transfected with the flag-tagged M2 receptor carrying the PKA fragment for enzyme complementation and transferred into 384-well micro plates. […] Determination of chemoluminescence was done with a Clariostar plate reader (BMG, Ortenberg, Germany). […] Normalized curves from three to five individual experiments each done in duplicate were analyzed by non-linear regression applying the algorithms in Prism 8.0 (GraphPad, San Diego, CA) to get dose-response curves representing average EC50 and Emax value.

C[N+](C)(C)CC#CCOC1=NOCC1 [Ixo, iperoxo] was tested, and the EC50 was 0.35 ± 0.08 nM, the Emax (read-out: Emax in % of acetylcholin, arrestin recruitment by iperoxo, agonist + 0.1 µM LY) was 168% and the Emax (read-out: Emax in % of acetylcholin, arrestin recruitment by iperoxo, agonist + 3 µM LY) was 172%. For the same compound, the Emax (read-out: Emax in % of acetylcholin, arrestin recruitment by iperoxo, agonist + 30 µM LY) was 170%, the Emax (read-out: Emax in % of acetylcholin, arrestin recruitment by iperoxo, agonist + 100 µM LY) was 170% and the Emax (read-out: arrestin recruitment as % max effect of acetylcholin, iperoxo log [M] 3-6) was 135%. It also gave an Emax (read-out: arrestin recruitment as % max effect of acetylcholin, iperoxo log [M] 3-7) of 142%, an Emax (read-out: arrestin recruitment as % max effect of acetylcholin, iperoxo log [M] 3-8) of 138% and an Emax (read-out: arrestin recruitment as % max effect of acetylcholin, iperoxo log [M] 3-8 + 1µM LY2119620) of 150%. For the same compound, the Emax (read-out: arrestin recruitment as % max effect of acetylcholin, iperoxo log [M] 3-8 + 10µM LY2119620) was 154%, the Emax (read-out: arrestin recruitment as % max effect of acetylcholin, iperoxo log [M] 3-8 + 30µM LY2119620) was 168% and the Emax (read-out: arrestin recruitment as % max effect of acetylcholin, iperoxo log [M] 3-8 + 100µM LY2119620) was 160%. The Emax (read-out: arrestin recruitment as % max effect of acetylcholin, iperoxo log [M] 3-9 + 0.1µM LY2119620) was 160%, the Emax (read-out: arrestin recruitment as % max effect of acetylcholin, iperoxo log [M] 3-9 + 3µM LY2119620) was 166% and the Emax (read-out: arrestin recruitment as % max effect of acetylcholin, iperoxo log [M] 3-9 + 30µM LY2119620) was 175%. The Emax (read-out: arrestin recruitment as % max effect of acetylcholin, iperoxo log [M] 3-9 + 100µM LY2119620) was 159%, the Emax (read-out: arrestin recruitment as % max effect of acetylcholin, iperoxo log [M] 3-10 + 30µM LY2119620) was 141% and the Emax (read-out: arrestin recruitment as % max effect of acetylcholin, iperoxo log [M] 3-10 + 100µM LY2119620) was 125%. The Emax (read-out: arrestin recruitment as % max effect of acetylcholin, iperoxo log [M] 3-11 + 0.1µM LY2119620) was 19.4%, the Emax (read-out: arrestin recruitment as % max effect of acetylcholin, iperoxo log [M] 3-11 + 1µM LY2119620) was 30.8% and the Emax (read-out: arrestin recruitment as % max effect of acetylcholin, iperoxo log [M] 3-11 + 3µM LY2119620) was 72.1%. It also gave an Emax (read-out: arrestin recruitment as % max effect of acetylcholin, iperoxo log [M] 3-11 + 10µM LY2119620) of 77.5%, an Emax (read-out: arrestin recruitment as % max effect of acetylcholin, iperoxo log [M] 3-11 + 100µM LY2119620) of 58.2% and an Emax (read-out: arrestin recruitment as % max effect of acetylcholin, iperoxo log [M] -5) of 152%. For the same compound, the Emax (read-out: arrestin recruitment as % max effect of acetylcholin, iperoxo log [M] -6 + 0.1µM LY2119620) was 163%, the Emax (read-out: arrestin recruitment as % max effect of acetylcholin, iperoxo log [M] -6 + 1µM LY2119620) was 142% and the Emax (read-out: arrestin recruitment as % max effect of acetylcholin, iperoxo log [M] -6 + 3µM LY2119620) was 170%. The Emax (read-out: arrestin recruitment as % max effect of acetylcholin, iperoxo log [M] -6 + 10µM LY2119620) was 155%, the Emax (read-out: arrestin recruitment as % max effect of acetylcholin, iperoxo log [M] -6 + 30µM LY2119620) was 180% and the Emax (read-out: arrestin recruitment as % max effect of acetylcholin, iperoxo log [M] -6 + 100µM LY2119620) was 166%. It also gave an Emax (read-out: arrestin recruitment as % max effect of acetylcholin, iperoxo log [M] -7 + 30µM LY2119620) of 168%, an Emax (read-out: arrestin recruitment as % max effect of acetylcholin, iperoxo log [M] -7 + 100µM LY2119620) of 161% and an Emax (read-out: arrestin recruitment as % max effect of acetylcholin, iperoxo log [M] -8 + 0.1µM LY2119620) of 162%. It also gave an Emax (read-out: arrestin recruitment as % max effect of acetylcholin, iperoxo log [M] -8 + 3µM LY2119620) of 149%, an Emax (read-out: arrestin recruitment as % max effect of acetylcholin, iperoxo log [M] -8 + 30µM LY2119620) of 176% and an Emax (read-out: arrestin recruitment as % max effect of acetylcholin, iperoxo log [M] -8 + 100µM LY2119620) of 160%. It also gave an Emax (read-out: arrestin recruitment as % max effect of acetylcholin, iperoxo log [M] -10 + 3µM LY2119620) of 105%, an Emax (read-out: arrestin recruitment as % max effect of acetylcholin, iperoxo log [M] -10 + 100µM LY2119620) of 89% and an Emax (read-out: arrestin recruitment as % max effect of acetylcholin, iperoxo log [M] -11 + 3µM LY2119620) of 44.6%. For the same compound, the Emax (read-out: arrestin recruitment as % max effect of acetylcholin, iperoxo log [M] -11 + 30µM LY2119620) was 75.7%, the Emax (read-out: arrestin recruitment as % max effect of acetylcholin, iperoxo log [M] -11 + 100µM LY2119620) was 58.6% and the Emax (read-out: arrestin recruitment as % max effect of acetylcholin, iperoxo log [M] -12 + 3µM LY2119620) was 37.8%. It also gave an Emax (read-out: arrestin recruitment as % max effect of acetylcholin, iperoxo log [M] -12 + 100µM LY2119620) of 62.6%, an Emax (read-out: arrestin recruitment as % max effect of acetylcholin, iperoxo log [M] -13 + 3µM LY2119620) of 33% and an Emax (read-out: arrestin recruitment as % max effect of acetylcholin, iperoxo log [M] -13 + 10µM LY2119620) of 26.7%. For the same compound, the Emax (read-out: arrestin recruitment as % max effect of acetylcholin, iperoxo log [M] -13 + 30µM LY2119620) was 59.3%, the Emax (read-out: arrestin recruitment as % max effect of acetylcholin, iperoxo log [M] -13 + 100µM LY2119620) was 44.2% and the Emax (read-out: enhancement of efficacy (Emax) in β-arrestin recruitment, presence of high concentration of LY2119620) was about 15%. The “arrestin recruitment as % max effect of acetylcholin” value (“arrestin recruitment as % max effect” for short) (iperoxo log [M] 3-9) was 135.8% and 120.8% and 147.9% and 130.1%, the “arrestin recruitment as % max effect” value (iperoxo log [M] 3-9 + 0.1µM LY2119620) was 156.9% and the “arrestin recruitment as % max effect” value (iperoxo log [M] 3-9 + 1µM LY2119620) was 109.3% and 162.2% and 161.4% and 201.0%. For the same compound, the “arrestin recruitment as % max effect” value (iperoxo log [M] 3-9 + 10µM LY2119620) was 130.3% and 161.0% and 169.5%, the “arrestin recruitment as % max effect” value (iperoxo log [M] 3-9 + 30µM LY2119620) was 168.8% and 163.9% and the “arrestin recruitment as % max effect” value (iperoxo log [M] 3-10 + 0.1µM LY2119620) was 82.7% and 92.1% and 124.5%. The “arrestin recruitment as % max effect” value (iperoxo log [M] 3-10 + 3µM LY2119620) was 147.1% and 158.1% and 137.1% and 138.5%, the “arrestin recruitment as % max effect” value (iperoxo log [M] 3-10 + 10µM LY2119620) was 103.3% and 152.4% and 152.5% and 133.9% and the “arrestin recruitment as % max effect” value (iperoxo log [M] 3-10 + 30µM LY2119620) was 133.2% and 130.6% and 122.9%. The “arrestin recruitment as % max effect” value (iperoxo log [M] 3-10 + 100µM LY2119620) was 127.5% and 129.1% and 112.5%, the “arrestin recruitment as % max effect” value (iperoxo log [M] -7 + 0.1µM LY2119620) was 171.1% and 186.3% and 156.7% and 161.0% and the “arrestin recruitment as % max effect” value (iperoxo log [M] -7 + 1µM LY2119620) was 129.3% and 176.9% and 172.6%. The “arrestin recruitment as % max effect” value (iperoxo log [M] -7 + 3µM LY2119620) was 210.7% and 168.6% and 182.6% and 172.8%, the “arrestin recruitment as % max effect” value (iperoxo log [M] -7 + 10µM LY2119620) was 131.2% and 159.6% and 162.7% and 198.6% and the “arrestin recruitment as % max effect” value (iperoxo log [M] -7 + 30µM LY2119620) was 161.3% and 181.0% and 168.2%. For the same compound, the “arrestin recruitment as % max effect” value (iperoxo log [M] -7 + 100µM LY2119620) was 157.1% and 172.7% and 165.6%, the “arrestin recruitment as % max effect” value (iperoxo log [M] -8 + 0.1µM LY2119620) was 168.3% and 154.3% and 173.5% and the “arrestin recruitment as % max effect” value (iperoxo log [M] -8 + 1µM LY2119620) was 124.1% and 172.3% and 160.8% and 152.0%. For the same compound, the “arrestin recruitment as % max effect” value (iperoxo log [M] -8 + 3µM LY2119620) was 158.0% and 166.2% and 162.4%, the “arrestin recruitment as % max effect” value (iperoxo log [M] -8 + 10µM LY2119620) was 139.2% and 163.1% and 168.9% and 181.1% and the “arrestin recruitment as % max effect” value (iperoxo log [M] -8 + 30µM LY2119620) was 176.5% and 174.9% and 157.1%. The “arrestin recruitment as % max effect” value (iperoxo log [M] -8 + 100µM LY2119620) was 165.6% and 153.6% and 149.1%, the “arrestin recruitment as % max effect” value (iperoxo log [M] -9 + 0.1µM LY2119620) was 127.2% and 148.3% and 150.9% and 143.2% and the “arrestin recruitment as % max effect” value (iperoxo log [M] -9 + 3µM LY2119620) was 137.5% and 153.6% and 172.9% and 151.5%. For the same compound, the “arrestin recruitment as % max effect” value (iperoxo log [M] -9 + 10µM LY2119620) was 118.8% and 155.2% and 169.6% and 149.0%, the “arrestin recruitment as % max effect” value (iperoxo log [M] -9 + 30µM LY2119620) was 161.0% and 151.6% and 144.8% and 137.0% and the “arrestin recruitment as % max effect” value (iperoxo log [M] -9 + 100µM LY2119620) was 158.6% and 154.0% and 158.3% and 124.7%. For the same compound, the “arrestin recruitment as % max effect” value (iperoxo log [M] -10 + 10µM LY2119620) was 79.6% and 137.1%, the “arrestin recruitment as % max effect” value (iperoxo log [M] -10 + 30µM LY2119620) was 112.5% and 108.5% and 109.4% and the “arrestin recruitment as % max effect” value (iperoxo log [M] -10 + 100µM LY2119620) was 85.8% and 82.4% and 75.4%.
